Source: patent US8648066B2 (Exelixis, Inc., priority 2009, dated 2014)

Target: mTOR/GbL/Raptor (mTORC1) (Homo sapiens, UniProt P42345)
Assay: mTOR/GbL/Raptor (mTORC1) ELISA assay
Format: biochemical
Settings: phosphorylation of 4E-BP1; 0.2 nM mTORC1, 10 μM ATP; read-out: IC50 in this assay (mTORC1 ELISA)
Method: The measurement of mTORC1 enzyme activity was performed in an ELISA assay format following the phosphorylation of 4E-BP1 protein. All experiments were performed in the 384-well format. Generally, 0.5 μL DMSO containing varying concentrations of the test Compound was mixed with 15 μL enzyme solution. Kinase reactions were initiated with the addition of 15 μL of substrates-containing solution. The assay conditions were as follows; 0.2 nM mTORC1, 10 μM ATP and 50 nM NHis-tagged 4E-BP1 in 20 mM Hepes, pH 7.2, 1 mM DTT, 50 mM NaCl, 10 mM MnCl2, 0.02 mg/mL BSA, 0.01% CHAPS, 50 mM β-glycerophosphate. Following an incubation of 120 minutes at ambient temperature, 20 μL of the reaction volume was transferred to a Ni-Chelate-coated 384-well plate. The binding step of the 4E-BP1 protein proceeded for 60 minutes, followed by washing 4 times each with 50 μL of Tris-buffered saline solution (TBS). Anti-phospho-4E-BP1 rabbit-IgG (20 μL, 1:5000) in 5% BSA-TBST (0.2% Tween-20 in TBS) was added and further incubated for 60 minutes. Incubation with a secondary HRP-tagged anti-IgG was similarly performed after washing off the primary antibody (4 washes of 50 μL). Following the final wash step with TBST, 20 μL of SuperSignal ELISA Femto (Pierce Biotechnology) was added and the luminescence measured using an EnVision plate reader.

Row | SMILES | IC50 [µM]
1 | Cc1nc2c(c(N3CCOc4ccc(-c5cnc(N)c(S(=O)(=O)NCC6CCN(C)CC6)c5)cc4C3)n1)CC(C)(C)CC2 [Example 419, 2-amino-N-[(1-methylpiperidin-4-yl)methyl]-5-[4-(2,6,6-trimethyl-5,6,7,8-tetrahydroquinazolin-4-yl)-2,3,4,5-tetrahydro-1,4-benzoxazepin-7-yl]pyridine-3-sulfonamide] | 0.25 to 1
2 | Cc1nc2ccc(-c3ccc4c(c3)CN(c3ccnc(Nc5ccccc5)n3)CCO4)cc2[nH]1 [Example 253, 4-[7-(2-methyl-1H-benzimidazol-6-yl)-2,3-dihydro-1,4-benzoxazepin-4(5H)-yl]-N-phenylpyrimidin-2-amine] | 0.05 to 0.25
3 | CCc1nc2ccc(-c3ccc4c(c3)CN(c3ncnc5c3CC(C)(C)CC5)CCO4)cc2[nH]1 [Example 254, 4-(6,6-dimethyl-5,6,7,8-tetrahydroquinazolin-4-yl)-7-(2-ethyl-1H-benzimidazol-6-yl)-2,3,4,5-tetrahydro-1,4-benzoxazepine] | ≤ 0.01
4 | Cc1nc2ncc(-c3ccc4c(c3)CN(c3nc(CN[C@@H](C)C(=O)O)nc5c3CC(C)(C)CC5)CCO4)cc2[nH]1 [Example 596, N-({6,6-dimethyl-4-[7-(2-methyl-1H-imidazo[4,5-b]pyridin-6-yl)-2,3-dihydro-1,4-benzoxazepin-4(5H)-yl]-5,6,7,8-tetrahydroquinazolin-2-yl}methyl)alanine] | ≤ 0.01
5 | COc1cccc(Cc2c(C)ncnc2N2CCOc3ccc(-c4ccc5nc(C)[nH]c5c4)cc3C2)c1 [Example 81, 7-(2-methyl-1H-benzimidazol-6-yl)-4-(6-methyl-5-{[3-(methyloxy)phenyl]methyl}pyrimidin-4-yl)-2,3,4,5-tetrahydro-1,4-benzoxazepine] | 0.01 to 0.05
6 | CCNc1nc2ccc(-c3ccc4c(c3)CN(c3ccnc5cc(OC)c(OC)cc35)CCO4)cc2[nH]1 [Example 261, 6-{4-[6,7-bis(methyloxy)quinolin-4-yl]-2,3,4,5-tetrahydro-1,4-benzoxazepin-7-yl}-N-ethyl-1H-benzimidazol-2-amine] | 0.25 to 1
7 | Cc1nc2ccc(-c3ccc4c(c3)CN(c3nc(CNCCF)nc5c3CC(C)(C)CC5)CCO4)cc2[nH]1 [Example 586, N-({6,6-dimethyl-4-[7-(2-methyl-1H-benzimidazol-6-yl)-2,3-dihydro-1,4-benzoxazepin-4(5H)-yl]-5,6,7,8-tetrahydroquinazolin-2-yl}methyl)-2-fluoroethanamine] | ≤ 0.01
8 | COc1cc2ncnc(N3CCOc4ccc(-c5ccc6nc(C)[nH]c6c5)cc4C3)c2cc1I [Example 37, 4-[6-iodo-7-(methyloxy)quinazolin-4-yl]-7-(2-methyl-1H-benzimidazol-6-yl)-2,3,4,5-tetrahydro-1,4-benzoxazepine] | 0.01 to 0.05
9 | CN(CCO)S(=O)(=O)c1cc(-c2ccc3c(c2)CN(c2ncnc4c2CC(C)(C)CC4)CCO3)cnc1N [Example 370, 2-amino-5-[4-(6,6-dimethyl-5,6,7,8-tetrahydroquinazolin-4-yl)-2,3,4,5-tetrahydro-1,4-benzoxazepin-7-yl]-N-(2-hydroxyethyl)-N-methylpyridine-3-sulfonamide] | 0.01 to 0.05
10 | Cc1nc2c(C)cc(-c3ccc4c(c3)CN(c3ncnc5cccnc35)CCO4)cc2[nH]1 [Example 214, 7-(2,4-dimethyl-1H-benzimidazol-6-yl)-4-pyrido[3,2-d]pyrimidin-4-yl-2,3,4,5-tetrahydro-1,4-benzoxazepine] | 0.25 to 1
11 | CCc1nc2ncc(-c3ccc4c(c3)CN(c3nc(C)nc5c3CC(C)(C)CC5)CCO4)cc2[nH]1 [Example 548, 7-(2-ethyl-1H-imidazo[4,5-b]pyridin-6-yl)-4-(2,6,6-trimethyl-5,6,7,8-tetrahydroquinazolin-4-yl)-2,3,4,5-tetrahydro-1,4-benzoxazepine] | ≤ 0.01
12 | COCc1nc2c(c(N3CCOc4ccc(-c5cnc6[nH]c(C)nc6c5)cc4C3)n1)CC(C)(C)CC2 [Example 508, 4-{6,6-dimethyl-2-[(methyloxy)methyl]-5,6,7,8-tetrahydroquinazolin-4-yl}-7-(2-methyl-3H-imidazo[4,5-b]pyridin-6-yl)-2,3,4,5-tetrahydro-1,4-benzoxazepine] | ≤ 0.01
13 | Cc1nc2ncc(-c3ccc4c(c3)CN(c3ncnc5c3CC(C)(C)C=C5)CCO4)cc2[nH]1 [Example 478, 4-(6,6-dimethyl-5,6-dihydroquinazolin-4-yl)-7-(2-methyl-1H-imidazo[4,5-b]pyridin-6-yl)-2,3,4,5-tetrahydro-1,4-benzoxazepine] | ≤ 0.01
14 | Cc1nc2ncc(-c3ccc4c(c3)CN(c3ncnc5c3C[C@H](C)[C@@H](C)C5)CCO4)cc2[nH]1 [Example 486, 4-[(6S,7S)-6,7-dimethyl-5,6,7,8-tetrahydroquinazolin-4-yl]-7-(2-methyl-1H-imidazo[4,5-b]pyridin-6-yl)-2,3,4,5-tetrahydro-1,4-benzoxazepine] | ≤ 0.01
15 | COc1ccc2c(N3CCOc4ccc(-c5cnc6[nH]cnc6c5)cc4C3)nc(CN(C)C)nc2c1 [Example 691, 1-{4-[7-(3H-imidazo[4,5-b]pyridin-6-yl)-2,3-dihydro-1,4-benzoxazepin-4(5H)-yl]-7-(methyloxy)quinazolin-2-yl}-N,N-dimethylmethanamine] | 1 to 2
16 | Cc1nc2ccc(-c3ccc4c(c3)CN(c3ncnc5c(Cl)cc(Cl)cc35)CCO4)cc2[nH]1 [Example 32, 4-(6,8-dichloroquinazolin-4-yl)-7-(2-methyl-1H-benzimidazol-6-yl)-2,3,4,5-tetrahydro-1,4-benzoxazepine] | 0.05 to 0.25
17 | CC[C@H]1CCc2c(ncnc2N2CCOc3ccc(-c4cnc5nc([C@@H](C)N)[nH]c5c4)cc3C2)C1 [Example 297, (1R)-1-(6-{4-[(7S)-7-ethyl-5,6,7,8-tetrahydroquinazolin-4-yl]-2,3,4,5-tetrahydro-1,4-benzoxazepin-7-yl}-1H-imidazo[4,5-b]pyridin-2-yl)ethanamine] | 0.05 to 0.25
18 | Cc1nc2ccc(-c3ccc4c(c3)CN(c3ncnc(C)c3Cc3cccc(F)c3)CCO4)cc2[nH]1 [Example 72, 4-{5-[(3-fluorophenyl)methyl]-6-methylpyrimidin-4-yl}-7-(2-methyl-1H-benzimidazol-6-yl)-2,3,4,5-tetrahydro-1,4-benzoxazepine] | ≤ 0.01
19 | Cc1nc2c(c(N3CCOc4ccc(-c5cnc(N)c(S(=O)(=O)N(C)C)c5)cc4C3)n1)CC(C)(C)CC2 [Example 417, 2-amino-N,N-dimethyl-5-[4-(2,6,6-trimethyl-5,6,7,8-tetrahydroquinazolin-4-yl)-2,3,4,5-tetrahydro-1,4-benzoxazepin-7-yl]pyridine-3-sulfonamide] | 0.05 to 0.25
20 | CC1=Cc2ncnc(N3CCOc4ccc(-c5cnc(N)c(S(=O)(=O)NCC(C)(C)N)c5)cc4C3)c2CC1(C)C [Example 405, 2-amino-N-(2-amino-2-methylpropyl)-5-[4-(6,6,7-trimethyl-5,6-dihydroquinazolin-4-yl)-2,3,4,5-tetrahydro-1,4-benzoxazepin-7-yl]pyridine-3-sulfonamide] | ≤ 0.01
21 | CC1(C)CCc2ncnc(N3CCOc4ccc(-c5cnc6nc(N)[nH]c6c5)cc4C3)c2C1 [Example 177, 6-[4-(6,6-dimethyl-5,6,7,8-tetrahydroquinazolin-4-yl)-2,3,4,5-tetrahydro-1,4-benzoxazepin-7-yl]-1H-imidazo[4,5-b]pyridin-2-amine] | ≤ 0.01
22 | Nc1nc2ncc(-c3ccc4c(c3)CN(c3ncnc5cc(Cl)c(Br)cc35)CCO4)cc2[nH]1 [Example 185, 6-[4-(6-bromo-7-chloroquinazolin-4-yl)-2,3,4,5-tetrahydro-1,4-benzoxazepin-7-yl]-1H-imidazo[4,5-b]pyridin-2-amine] | 0.01 to 0.05
23 | CN(C)CCNS(=O)(=O)c1cc(-c2ccc3c(c2)CN(c2ncnc4c2CC(C)(C)CC4)CCO3)cnc1N [Example 423, 2-amino-N-[2-(dimethylamino)ethyl]-5-[4-(6,6-dimethyl-5,6,7,8-tetrahydroquinazolin-4-yl)-2,3,4,5-tetrahydro-1,4-benzoxazepin-7-yl]pyridine-3-sulfonamide] | 0.05 to 0.25
24 | Cc1nc2ccc(-c3ccc4c(c3)CN(c3nc(CN5CC[C@@H](F)C5)nc5c3CC(C)(C)CC5)CCO4)cc2[nH]1 [Example 461] | 0.05 to 0.25
25 | CC(C)(O)CC[S+]([O-])c1cc(-c2ccc3c(c2)CN(c2ncnc4c2CC(C)(C)CC4)CCO3)cnc1N (stereo not drawn) [Example 458, 4-({2-amino-5-[4-(6,6-dimethyl-5,6,7,8-tetrahydroquinazolin-4-yl)-2,3,4,5-tetrahydro-1,4-benzoxazepin-7-yl]pyridin-3-yl}sulfinyl)-2-methylbutan-2-ol] | 0.05 to 0.25
26 | Cc1nc2c(F)c(-c3ccc4c(c3)CN(c3nc(CN(C)C)nc5c3CC(C)(C)CC5)CCO4)ccc2[nH]1 [Example 341, 1-{4-[7-(4-fluoro-2-methyl-1H-benzimidazol-5-yl)-2,3-dihydro-1,4-benzoxazepin-4(5H)-yl]-6,6-dimethyl-5,6,7,8-tetrahydroquinazolin-2-yl}-N,N-dimethylmethanamine] | 0.25 to 1
27 | c1ccc2c(N3CCOc4ccc(-c5ccc6nccnc6c5)cc4C3)ccnc2c1 [Example 132, 4-quinolin-4-yl-7-quinoxalin-6-yl-2,3,4,5-tetrahydro-1,4-benzoxazepine] | ≥ 2
